From article PMC4764579, “Structural insights into the mechanism of activation of the TRPV1 channel by a membrane-bound tarantula toxin” (eLife, 2016) come the findings set out here.

The nature of this data set: Membrane partitioning of toxins into lipid vesicles measured using Trp fluorescence. The following applies: LUVs 1:1 POPC:POPG. It counts as physicochemical. From the text: Motivated by the amphipathic character evident in the structure of DkTx, together with the placement of the toxin at the protein-lipid interface when bound to TRPV1, we investigated the interaction of DkTx and each of its two lobes with lipid membranes. For these experiments, we took advantage of the presence of a single conserved and solvent accessible Trp residue in loop 2 of both K1 and K2 (Figure 1C,D; W11 and W53), and used Trp fluorescence to monitor the partitioning of the toxin from the aqueous solution into the membrane environment ([Gupta et al., 2015]; [Ladokhin et al., 2000]; [Milescu et al., 2007]). When aqueous solutions of DkTx were excited at a wavelength of 280 nm, emission spectra with maxima at 353 nm were obtained (Figure 5A, left), as expected for Trp residues residing in such an environment. […] To quantify the extent of partitioning as a function of lipid concentration, we measured the relative fluorescence intensity in a blue-shifted region of the spectra (e.g. 320 nm) as a function of lipid concentration, and fit a partition function to the data to obtain a mole-fraction partition coefficient (Kx) of (2.3 ± 0.7) × 10^6, indicating an energetically favorable interaction of DkTx with lipid membranes (Figure 5A, right). This strong interaction of DkTx with membranes would facilitate binding of the toxin to the channel by increasing the local concentration of the toxin near the channel and by a reduction in the dimensionality of diffusion within the membrane ([Axelrod and Wang, 1994]).
Figure 5. Interaction of DkTx and toxin constructs with lipid membranes measured using Trp fluorescence. (A–E, left panel) Trp emission spectra of DkTx (A), K1 without linker (B), K2 (C), bivalent K1 (K1K1) (D) and bivalent K2 (K2K2) (E) in the absence (black) and presence (blue, 1.6 mM for DkTx, 2 mM for K1-ΔL and K1K1, and 3 mM for K2 and K2K2) of lipid vesicles (1:1 mix of POPC:POPG). (A–E, right panel) Relative fluorescence intensity at 320 nm (F/F0) as a function of available lipid concentrations (60% of total lipid concentration). Smooth curves correspond to partition functions with Kx = (2.3 ± 0.7) × 10^6 and F/F0^max = 2.65 ± 0.08 for DkTx, Kx = (3.9 ± 1.1) × 10^5 and F/F0^max = 2.63 ± 0.07 for K1-ΔL, Kx = (2.0 ± 0.3) × 10^4 and F/F0^max = 3.71 ± 0.40 for K2, Kx = (2.9 ± 0.3) × 10^6 and F/F0^max = 2.47 ± 0.03 for K1K1 and Kx = (8.1 ± 2) × 10^5 and F/F0^max = 2.77 ± 0.55 for K2K2. Error bars correspond to SEM (n = 3 or 4). Partition functions for K1-ΔL and K2 are shown as dotted lines for comparison in D and E, respectively. (F) Comparisons of mole-fraction partition coefficient (Kx) of toxins. 7G-DkTx denotes a construct of DkTx whose linker (PYVPVTT) is replaced with 7 Gly residues. Error bars correspond to SEM (n = 3 or 4). DOI: http://dx.doi.org/10.7554/eLife.11273.020 Figure 5—figure supplement 1. Interaction of K1-K2 chimeras with lipid membranes measured using Trp fluorescence. (A–E, left panel) Trp emission spectra of K1(D1N) (A), K1(K2L2) (B), K1(K2L3) (C), K1(K2L4) (D) and K1(K2CT) (E) in the absence (black) and presence (blue, 2 mM) of lipid vesicles (1:1 mix of POPC:POPG). (A–D, right panel) Relative fluorescence intensity at 320 nm (F/F0) as a function of available lipid concentrations (60% of total lipid concentration). Smooth curves correspond to partition functions with Kx = (1.76 ± 0.06) × 10^6 and F/F0^max = 3.79 ± 0.02 for K1(D1N), Kx = (4.77 ± 1.39) × 10^5 and F/F0^max = 1.31 ± 0.02 for K1(K2L2), Kx = (1.02 ± 0.04) × 10^4 and F/F0^max = 3.69 ± 0.02 for K1(K2L3), and Kx = (0.90 ± 0.04) × 10^6 and F/F0^max = 2.59 ± 0.02 for K1(K2L4). Error bar corresponds to SEM (n = 3 or 4). Smooth curve of K1-ΔL was shown as a dotted line for comparison throughout the figures. (F) Comparisons of mole-fraction partition coefficient (Kx) of toxins. Error bars correspond to SEM (n = 3 or 4). DOI: http://dx.doi.org/10.7554/eLife.11273.021 [drawing 10] […]

Structures are written as SMILES. Positions of bridges follow the written chain, without caps; N, C: chain ends. Residues, ends and D or L forms follow the SMILES beside them.

On to `CC[C@H](C)[C@@H]1NC(=O)[C@H](Cc2ccccc2)NC(=O)[C@H](C)NC(=O)[C@H](CC(C)C)NC(=O)[C@@H]2CCCN2C(=O)[C@@H]2CSSC[C@@H]3NC(=O)[C@H](C(C)C)NC(=O)[C@H](CCC(=O)O)NC(=O)CNC(=O)[C@H](CCC(=O)O)NC(=O)[C@H](CCCCN)NC(=O)[C@H](C)NC(=O)[C@@H](NC(=O)[C@@H](N)CC(N)=O)CSSC[C@H](NC(=O)[C@H](CSSC[C@@H](C(=O)N[C@@H](CCC(=O)O)C(=O)N[C@@H](CCCCN)C(=O)N[C@@H](Cc4ccc(O)cc4)C(=O)N[C@@H](CCCNC(=N)N)C(=O)O)NC(=O)[C@H](Cc4ccc(O)cc4)NC(=O)[C@@H]4CCCN4C1=O)NC(=O)[C@H](CCCCN)NC(=O)[C@H](CO)NC(=O)CNC(=O)[C@H](Cc1c[nH]c4ccccc14)NC(=O)CNC3=O)C(=O)N[C@@H](Cc1c[nH]cn1)C(=O)NCC(=O)N[C@@H](CC(C)C)C(=O)N[C@@H](CC(=O)O)C(=O)N2` [K2] (H-NCAKEGEVCGWGSKCCHGLDCPLAFIPYCEKYR-OH; disulfide 2-16, 9-21, 15-29 (inferred); N-terminus and C-terminus assumed), for which the “F/F0^max (relative fluorescence intensity at 320 nm when partitioning is saturated)” value (Trp fluorescence, 10 mM HEPES, 1 mM EDTA, pH 7.0, fit of partition function, ± SEM, n = 3 or 4, SEM) is listed as 3.71 ± 0.40. Where the note is “from measured Kx”, the “measured free energy of membrane partitioning (ΔG° = −RT lnKx)” value is -5.8 kcal/mol.
